The values below come from patent EP1363899B1, “QUINAZOLONE DERIVATIVES AS ALPHA 1A/B ADRENERGIC RECEPTOR ANTAGONISTS” (F.HOFFMANN-LA ROCHE AG, priority 2001, dated 2002).

For experiment [1], the target named is T1, alpha-1A adrenoceptor (Homo sapiens, UniProt P35348).
T1 construct: expressed in transfected cells; host or cells: CHO-K1
T1 sequence (P35348 1-466): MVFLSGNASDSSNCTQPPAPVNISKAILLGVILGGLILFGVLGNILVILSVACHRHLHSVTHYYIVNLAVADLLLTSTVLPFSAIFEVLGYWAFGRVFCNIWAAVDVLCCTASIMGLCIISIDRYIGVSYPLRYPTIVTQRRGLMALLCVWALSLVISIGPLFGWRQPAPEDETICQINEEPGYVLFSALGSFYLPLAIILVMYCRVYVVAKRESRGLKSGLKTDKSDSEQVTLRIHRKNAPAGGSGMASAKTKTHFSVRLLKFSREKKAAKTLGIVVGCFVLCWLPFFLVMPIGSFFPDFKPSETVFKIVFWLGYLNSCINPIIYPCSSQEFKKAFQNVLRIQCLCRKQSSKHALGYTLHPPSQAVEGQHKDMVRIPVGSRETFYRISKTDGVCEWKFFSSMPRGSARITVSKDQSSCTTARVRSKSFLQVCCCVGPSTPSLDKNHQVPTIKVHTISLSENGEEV
In words: [3H]prazosin binding (alpha1-adrenoceptor) assay, alpha-1A. Particulars: membranes of transfected CHO-KI cells, read-out: affinity towards the alpha-1A adrenoceptor (pKi) (converted). Here is the method: (§1) Alpha1A, alpha1B, and alpha1D adrenoceptor transfected CHO-KI cells, prepared using the methods described by Chang et al., FEBS Lett. 1998, 422:279-283, were grown to confluence in T-162 tissue culture flasks in Ham's F-12 culture medium supplemented with 10% fetal bovine serum, geneticin (150 µg/mL) and streptomycin/penicillin (30 µg/mL/30 µg/mL) at 37 °C in 7% CO2. Cells were harvested by incubating with phosphate-buffered saline (PBS) containing 30 µM EDTA for 5-10 min at 37 °C. Cells were pelleted by centrifuging at 500 x g for 5 min, and the pelleted cells were homogenized (Polytron homogenizer) in 10 vols (w/v) of 50 mM Tris, 1 mM EDTA, (homogenisation buffer, pH 7.4 at 4 °C). The homogenate was centrifuged at 45,000 x g for 20 min. The pellet was resuspended in the homogenizing buffer and rehomogenized. The resulting homogenate was centrifuged at 45,000 x g for 20 min. The pellet was resuspended in 50 mM Tris buffer (pH 7.4 at 4 °C), aliquoted, frozen, and stored at -80 °C for further use.
(§2) The membranes were thawed at room temperature and diluted in assay buffer (50 mM Tris buffer at […]) at 37 °C and homogenized using the Polytron tissue disrupter. The membranes were incubated with the radioligand ([^3H]prazosin, NEN, 0.1 - 0.5 nM) and test compound at 37 °C for 30 min. The membranes were then filtered over polyethyleneimine-treated GF/B unifilter plates using a Packard Filtermate Harvester and washed with ice-cold 50 mM Tris-HCl, 1 mM EDTA buffer (3 x 3 sec. washes). Scintillation cocktail was added to the filter plates and bound radioligand determined by liquid scintillation spectrophotometry.
(§3) For each experiment, total binding (in the absence of any test or reference compounds) and non-specific binding (10 µM phentolamine) were determined. For each sample tested, the concentration producing 50% inhibition of binding (IC50) and Hill Slope (nH) was determined using iterative non-linear curve fitting techniques with Kaleidagraph (Synergy Software) or other appropriate software. If the radioligand KD was known, the inhibition dissociation constant (K1) of each ligand was determined according to the method of Cheng and Prusoff (Cheng, Y-C. and Prusoff, W.H., Biochem. Pharmacol., 1973, 22, 3099-3108).

Experiment [2] has as its target T2, alpha-1B adrenoceptor (Homo sapiens, UniProt P35368).
T2 construct: expressed in transfected cells; host or cells: CHO-K1
T2 sequence (P35368 1-520): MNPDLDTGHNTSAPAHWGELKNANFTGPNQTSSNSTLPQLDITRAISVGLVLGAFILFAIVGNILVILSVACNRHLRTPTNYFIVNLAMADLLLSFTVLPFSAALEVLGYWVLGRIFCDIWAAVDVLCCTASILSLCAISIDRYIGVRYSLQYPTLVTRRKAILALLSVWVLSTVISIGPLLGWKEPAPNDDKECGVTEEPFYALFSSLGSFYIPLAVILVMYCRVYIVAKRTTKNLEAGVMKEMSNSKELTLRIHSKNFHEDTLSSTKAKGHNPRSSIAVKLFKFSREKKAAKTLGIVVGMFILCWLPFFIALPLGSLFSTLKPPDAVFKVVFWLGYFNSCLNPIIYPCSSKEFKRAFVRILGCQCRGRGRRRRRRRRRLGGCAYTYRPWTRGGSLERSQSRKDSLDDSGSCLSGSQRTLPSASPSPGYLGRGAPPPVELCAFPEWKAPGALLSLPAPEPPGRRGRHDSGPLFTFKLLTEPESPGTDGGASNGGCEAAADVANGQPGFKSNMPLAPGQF
The experiment is described as follows: [3H]prazosin binding (alpha1-adrenoceptor) assay, alpha-1B. Particulars: membranes of transfected CHO-KI cells, read-out: affinity towards the alpha-1B adrenoceptor (pKi) (converted). Here is the method: as §1, §2, §3

The target in experiment [3] is T3, alpha-1D adrenoceptor (Homo sapiens, UniProt P25100).
T3 construct: expressed in transfected cells; host or cells: CHO-K1
T3 sequence (P25100 1-572): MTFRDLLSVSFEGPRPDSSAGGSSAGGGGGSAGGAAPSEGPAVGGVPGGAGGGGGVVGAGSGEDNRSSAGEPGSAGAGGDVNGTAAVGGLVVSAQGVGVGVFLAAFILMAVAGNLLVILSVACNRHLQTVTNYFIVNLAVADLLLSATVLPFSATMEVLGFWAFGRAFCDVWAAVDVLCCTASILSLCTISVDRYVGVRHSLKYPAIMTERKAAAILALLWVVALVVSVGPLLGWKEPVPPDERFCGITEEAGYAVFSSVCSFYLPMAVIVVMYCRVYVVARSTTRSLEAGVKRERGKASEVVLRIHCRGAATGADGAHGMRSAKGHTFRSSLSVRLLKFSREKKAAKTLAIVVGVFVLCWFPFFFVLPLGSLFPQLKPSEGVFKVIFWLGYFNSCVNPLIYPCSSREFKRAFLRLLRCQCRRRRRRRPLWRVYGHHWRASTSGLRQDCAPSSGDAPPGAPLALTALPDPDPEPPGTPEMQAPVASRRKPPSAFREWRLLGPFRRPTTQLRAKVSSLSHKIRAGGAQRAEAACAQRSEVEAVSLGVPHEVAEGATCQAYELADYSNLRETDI
In words: [3H]prazosin binding (alpha1-adrenoceptor) assay, alpha-1D. Particulars: membranes of transfected CHO-KI cells, read-out: affinity towards the alpha-1D adrenoceptor (pKi) (converted). The method, then:
as §1, §2, §3

Each structure is given as a SMILES string.

As to `COc1cc2c(cc1OC)CN(C1=Nc3cc(OC)c(OC)cc3S(=O)(=O)N1)CC2` [Compound 101, 3-(6,7-dimethoxy-3,4-dihydro-1H-isoquinolin-2-yl)-6,7-dimethoxy-2H-benzo[1,2,4]thiadiazine-1,1-dioxide], the Ki in experiment [1] is 1.62 nM; in experiment [2] it was 7.08 nM; in experiment [3], 66.1 nM.
In the same order, the values of `COc1cc2nc(N3CCc4c(ncnc4Nc4cccc(C)n4)C3)[nH]c(=O)c2cc1OC` [Compound 208, 6,7-dimethoxy-2-[4-(6-methyl-pyridin-2-ylamino)-5,8-dihydro-6H-pyrido[3,4-d]pyrimidin-7-yl]-3H-quinazolin-4-one] are 3.8 nM, 13.2 nM and 182 nM.
On to `COc1cc2c(cc1OC)CN(c1nc(=O)c3cc(OC)c(OC)cc3[nH]1)CC2` [Compound 105, 2-(6,7-dimethoxy-3,4-dihydro-1H-isoquinolin-2-yl)-6,7-dimethoxy-1H-quinazolin-4-one], for which the Ki in experiment [1] was 0.955 nM; in experiment [2], 0.759 nM; in experiment [3] it was 47.9 nM.
In the same order, the values of `COc1ccc(-c2cccc3c2CCN(c2nc4cc(OC)c(OC)cc4c(=O)[nH]2)C3)cc1` [Compound 106, 6,7-dimethoxy-2-[5-(4-methoxy-phenyl)-3,4-dihydro-1H-isoquinolin-2-yl]-3H-quinazolin-4-one] are 3.8 nM, 0.741 nM and 10000 nM.
The corresponding values for `COCCN(C)c1ncnc2c1CCN(c1nc3cc(OC)c(OC)cc3c(=O)[nH]1)C2` [Compound 205] are 6.17 nM, 5.01 nM and 407 nM.
Regarding `COc1cc2nc(N3CCc4nc5ccncc5cc4C3)[nH]c(=O)c2cc1OC` [Compound 146, 2-(3,4-dihydro-1H-2,7,10-triaza-anthracen-2-yl)-6,7-dimethoxy-3H-quinazolin-4-one], the Ki is 3.47 nM in experiment [1], 5.25 nM in experiment [2] and 91.2 nM in experiment [3].
In the case of `COc1cc2nc(N3CCc4c(cc(OC)c(OC)c4C#N)C3)[nH]c(=O)c2cc1OC` [Compound 118, 2-(6,7-dimethoxy-4-oxo-3,4-dihydro-quinazolin-2-yl)-6,7-dimethoxy-1,2,3,4-tetrahydro-isoquinoline-5-carbonitrile], the Ki was 0.759 nM in experiment [1], 1.51 nM in experiment [2] and 17 nM in experiment [3].
The corresponding values for `COc1cc2nc(N3CCc4ccc(N5CCCC5)cc4C3)[nH]c(=O)c2cc1OC` [Compound 113, 6,7-dimethoxy-2-(7-pyrrolidin-1-yl-3,4-dihydro-1H-isoquinolin-2-yl)-3H-quinazolin-4-one] are 2.04 nM, 0.912 nM and 33.9 nM.
As to `COc1ccc(-n2cnc3c2CCN(c2nc4cc(OC)c(OC)cc4c(=O)[nH]2)C3)cc1` [Compound 608, 6,7-dimethoxy-2-[1-(4-methoxy-phenyl)-1,4,6,7-tetrahydro-imidazo[4,5-c]pyridin-5-yl]-3H-quinazolin-4-one], the Ki in experiment [1] is 2.75 nM; in experiment [2] it was 5.89 nM; in experiment [3], 83.2 nM.
In the same order, the values of `COc1cc2nc(N3CCc4c(cccc4-c4cnccc4N)C3)[nH]c(=O)c2cc1OC` [Compound 902, 2-[5-(4-amino-pyridin-3-yl)-3,4-dihydro-1H-isoquinolin-2-yl)-6,7-dimethoxy-3H-quinazolin-4-one] are 25.1 nM, 56.2 nM and 692 nM.
The corresponding values for `CCCCc1ncc2n1CCN(c1nc(=O)c3cc(OC)c(OC)cc3[nH]1)C2` [Compound 306, 2-(3-butyl-5,6-dihydro-8H-imidazo[1,5-α]pyrazin-7-yl)-6,7-dimethoxy-1H-quinazolin-4-one] are 1.12 nM, 3.09 nM and 19.5 nM.
The corresponding values for `COc1cc2[nH]c(N3CCn4c(cnc4-c4ccccc4)C3)nc(=O)c2cc1OC` [Compound 302, 6,7-dimethoxy-2-(3-phenyl-5,6-dihydro-8H-imidazo[1,5-a]pyrazin-7-yl)-1H-quinazolin-4-one] are 0.912 nM, 0.832 nM and 6.17 nM.
Consider `COc1cc2[nH]c(N3CCn4c(cnc4N4CCOCC4)C3)nc(=O)c2cc1OC` [Compound 307, 6,7-dimethoxy-2-(3-morpholin-4-yl-5,6-dihydro-8H-imidazo[1,5-α]pyrazin-7-yl)-1H-quinazolin-4-one], for which the Ki was 7.76 nM in experiment [1], 17.4 nM in experiment [2] and 123 nM in experiment [3].
The corresponding values for `COc1cc2c(cc1OC)S(=O)(=O)NC(N1CCc3c(ncnc3N3CCOCC3)C1)=N2` [Compound 102, 6,7-dimethoxy-3-(4-morpholin-4-yl-5,8-dihydro-6H-pyrido[3,4d]pyrimidin-7-yl)-2H-benzo[1,2,4]thiadiazine-1,1-dioxide] are 15.8 nM, 31.6 nM and 339 nM.
For the molecule `COc1cc2nc(N3CCc4c(ncn4Cc4ccccc4)C3)[nH]c(=O)c2cc1OC` [Compound 501, 2-(1-benzyl-1,4,6,7-tetrahydro-imidazo[4,5-c]pyridin-5-yl)-6,7-dimethoxy-3H-quinazolin-4-one], the Ki in experiment [1] was 3.39 nM; in experiment [2], 20 nM; in experiment [3], 347 nM.
Regarding `COc1cc2nc(N3CCc4c(cccc4S(=O)(=O)N4CCN(C)CC4)C3)[nH]c(=O)c2cc1OC` [Compound 401, 6,7-dimethoxy-2-[5-(4-methyl-piperazine-1-sulfonyl)-3,4-dihydro-1H-isoquinolin-2-yl]-3H-quinazolin-4-one], the Ki in experiment [1] is 15.1 nM; in experiment [2], 52.5 nM; in experiment [3], 1170 nM.
On to `COc1cc2nc(N3CCc4c(cccc4NC4=NCCC4)C3)[nH]c(=O)c2cc1OC` [Compound 810, 2-[5-(4,5-dihydro-3H-pyrrol-2-ylamino)-3,4-dihydro-1H-isoquinolin-2-yl]-6,7-dimethoxy-3H-quinazolin-4-one], for which the Ki in experiment [1] is 9.55 nM; in experiment [2], 6.61 nM; in experiment [3], 398 nM.
